The NIST ThermoML archive (doi:10.1021/je900550v)

Conditions: 101.33 kPa, Liquid; for speed of sound: Pulse-echo method; for mass density: Vibrating tube method

CCC(=O)[O-].C[NH2+]CCO [2-hydroxy-N-methylethanaminium propionate]
Conditions	mass density [kg/m3]	speed of sound [m/s]	viscosity [mPa·s]
278.15 K	1084.28	1752.4	–
278.4 K	1084.12	1751.6	–
278.65 K	1083.96	1750.7	–
278.9 K	1083.8	1749.8	–
279.15 K	1083.63	1749	–
279.4 K	1083.47	1748.1	–
279.65 K	1083.31	1747.3	–
279.9 K	1083.15	1746.5	–
280.15 K	1082.98	1745.6	–
280.4 K	1082.82	1744.8	–
280.65 K	1082.66	1744	–
280.9 K	1082.5	1743.1	–
281.15 K	1082.34	1742.3	–
281.4 K	1082.18	1741.5	–
281.65 K	1082.02	1740.7	–
281.9 K	1081.86	1739.8	–
282.15 K	1081.69	1739	–
282.4 K	1081.53	1738.2	–
282.65 K	1081.37	1737.4	–
282.9 K	1081.21	1736.6	–
283.15 K	1081.05	1735.8	–
283.4 K	1080.88	1735	–
283.65 K	1080.72	1734.2	–
283.9 K	1080.56	1733.4	–
284.15 K	1080.39	1732.6	–
284.4 K	1080.23	1731.8	–
284.65 K	1080.07	1731	–
284.9 K	1079.91	1730.2	–
285.15 K	1079.75	1729.4	–
285.4 K	1079.59	1728.5	–
285.65 K	1079.42	1727.8	–
285.9 K	1079.25	1727	–
286.15 K	1079.09	1726.2	–
286.4 K	1078.93	1725.5	–
286.65 K	1078.76	1724.7	–
286.9 K	1078.6	1723.9	–
287.15 K	1078.44	1723.1	–
287.4 K	1078.28	1722.4	–
287.65 K	1078.11	1721.6	–
287.9 K	1077.95	1720.8	–
288.15 K	1077.79	1720	432.13
288.4 K	1077.62	1719.3	–
288.65 K	1077.46	1718.5	–
288.9 K	1077.3	1717.7	–
289.15 K	1077.13	1717	–
289.4 K	1076.97	1716.2	–
289.65 K	1076.81	1715.4	–
289.9 K	1076.64	1714.7	–
290.15 K	1076.48	1713.9	–
290.4 K	1076.31	1713.2	–
290.65 K	1076.15	1712.4	359.06
290.9 K	1075.98	1711.6	–
291.15 K	1075.82	1710.9	–
291.4 K	1075.65	1710.1	–
291.65 K	1075.49	1709.3	–
291.9 K	1075.33	1708.6	–
292.15 K	1075.16	1707.8	–
292.4 K	1075	1707.1	–
292.65 K	1074.83	1706.4	–
292.9 K	1074.67	1705.6	–
293.15 K	–	1704.9	301.63
